Holding throughout (type): in vivo, human
The subject of data set [1] is comedones and nodular and inflammatory lesions (acne in patients). Briefly: Placebo-controlled study in acne patients: counts of comedones and nodular and inflammatory lesions on the face. As to the method:
(§1) Thirty-five patients (13-55 years of age) were enrolled in a placebo-controlled study. Twenty-seven patients were treated with oral administration of a capsule containing the ingredients of Formula 1 and eight patients were treated with a placebo capsule containing only doxycycline hyclate (50 mg). Patients received Formula 1 or placebo twice daily for twelve weeks. The number of comedones (“blackheads”) and nodular and inflammatory lesions (>2 mm in diameter) were counted on the face of each patient at baseline and at two weeks, six weeks and twelve weeks post-treatment.
The results are shown as the change at baseline and the percent change from baseline for each outcome measure after twelve weeks of treatment. Data are reported as mean values (±standard error of the mean, SEM) for each outcome measure. The results for ‘total lesions’ includes both comedones and inflammatory and nodular lesions.

Data set [2] relates to inflammatory and nodular lesions and comedones (acne in patients). Briefly: Investigator Global Assessment (IGA) score of the appearance of inflammatory and nodular lesions and comedones. As to conditions: score of 1 to 10, 10 indicating the most improvement. As to the method:
as §1
Next, an Investigator Global Assessment (IGA) score measuring the improvement of the appearance of inflammatory and nodular lesions and comedones was determined for each patient at baseline and 2 weeks and 6 weeks post-treatment. For this assessment the investigators were asked to evaluate whether their patient's lesions and comedones improved using a score of 1 to 10 with 10 indicating the most improvement.

In data set [3] the test system is porphyrins, a measure of bacteria in pores. Briefly: Visia complexion analysis: average number of porphyrins. As to the method:
Thirty-five patients (13-55 years of age) were enrolled in a placebo-controlled study. Twenty-seven patients were treated with oral administration of a capsule containing the ingredients of Formula 1 and eight patients were treated with a placebo capsule containing only doxycycline hyclate (50 mg). Patients received Formula 1 or placebo twice daily for twelve weeks. The number of comedones (“blackheads”) and nodular and inflammatory lesions (>2 mm in diameter) were counted on the face of each patient at baseline and at two weeks, six weeks and twelve weeks post-treatment. […] Lastly, the Visia™ complexion analysis system was used to assess the average number of porphyrins, a measure of bacteria in pores, in each patient.

Another data set relates to patients. Description: Untoward effects in the placebo-controlled patient study. As to conditions: twice daily for twelve weeks, oral capsule. As to the method:
as §1

For the molecule `C[C@H]1c2cccc(O)c2C(O)=C2C(=O)[C@]3(O)C(O)=C(C(N)=O)C(=O)[C@@H](N(C)C)[C@@H]3[C@@H](O)[C@@H]21` [Placebo, doxycycline hyclate], in data set [1] (12 weeks vs baseline), the “Total Comedones, Change from baseline, %” value is listed as −27.4%; the “Total Inflammatory and Nodular Lesions, Change from baseline, %” value is recorded as −50.9%; the “Total Lesions, Change from baseline, %” value is −35.6%. Moreover, in data set [1] (after twelve weeks of treatment), the “reduction of the total number of lesions (comedones and inflammatory and nodular lesions)” value came out at 35.6%. Also, the “reduction of the average number of comedones at twelve weeks compared to baseline” value in data set [1] (twelve weeks vs baseline) was determined as 27.4%. Further, the “average number of comedones, week 2” value in data set [1] (week 2) is 29.0. The “average number of comedones, week 6” value in data set [1] (week 6) came out at 11.8. Further, in data set [2] (baseline), the “IGA score, baseline” value is listed as 2.3. Moreover, the “IGA score, six weeks” value in data set [2] (six weeks) is recorded as 2.5. Besides, the “Por (BL), average number of porphyrins” value in data set [3] (baseline) was 31.6. The “Por (W2), average number of porphyrins” value in data set [3] (week 2) was determined as 25.8. In addition, in data set [3] (week 6), the “Por (W6), average number of porphyrins” value is reported as 15.7. The “Por (W12), average number of porphyrins” value in data set [3] (week 12) amounted to 35.5. Besides, the serious untoward effects entry in the data set with patients is reported as “No serious untoward effects”.
